Data reported in US5994349A, “3-carboalkoxy-2, 3-dihydro-1H-phenothiazin-4[10H]-one derivatives” (priority 1997, dated 1999).
Like-named read-outs stand apart in the source and are kept apart here.

Tests used:
[1] = system: maximal electroshock seizures; test: maximal electroshock (MES) test, oral rat (Phase VIA/VIB); type: in vivo, male Sprague-Dawley rats; settings: 30 mg/kg
neurotoxicity (rotorod) [2] = test: rotorod test for neurological toxicity (Tox), Phase I, mice ip; type: in vivo, male Carworth Farms No. 1 (CF1) mice
Method in brief: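 Neurological toxicity was assessed in Phase I with the rotorod test in male Carworth Farms No. 1 (CF1) mice weighing 18-25 g, dosed intraperitoneally. Each mouse was set on a knurled plastic rod of 1 inch diameter turning at 6 rpm, a speed normal mice can stay on indefinitely. Motor impairment was recorded 30 min and 4 h after dosing, sometimes also at 2 h and 6 h.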

[3] = system: pentylenetetrazol seizures; test: subcutaneous pentylenetetrazol (scMet) test, Phase I, mice ip; type: in vivo, male Carworth Farms No. 1 (CF1) mice; settings: Mus musculus, mice ip
[4] = stability in refluxing DMSO; type: physicochemical; settings: refluxing DMSO for periods up to 40 min, forming 4m
Method: Without wishing to be held to any particular theory, when experimental conditions for the final step are identical for each ester, (i.e., 40 min reflux in DMSO), it is believed that the ter-butyl compound 4c (X=H) undergoes thermal decomposition to give 2,3-dihydro-1H-phenothiazin-4[10H]-one, 4d (X=H). Thermal decomposition of the desired phenothiazine 4c (X=H) to butylene and the b-keto acid (4, R=X=H) is suspected, followed by decarboxylation of the latter compound to 4d (X=H). This is substantiated by the formation of the 4c series by employing shorter reflux times in DMSO. […] Friary and coworkers have shown that 7c (R=C(CH3)3) is readily decarboxylated under acid-catalyzed conditions to form 7d (see Scheme III below). Friary, R. J.; Gilligan, J. M.; Szajewski, R. P.; Falci, K. J.; Franck, R. W. Heterocyclic syntheses via the intramolecular acylation of enamines derived from animo acids. J. Org. Chem. 1973, 38, 3487-3490. [drawing 7]

[5] = system: maximal electroshock seizures; test: maximal electroshock (MES) test, Phase I, mice ip; type: in vivo, male Carworth Farms No. 1 (CF1) mice; settings: Mus musculus
Method in brief: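 Male CF1 mice (18-25 g) dosed ip at 30, 100 and 300 mg/kg in 0.5% methylcellulose, tested 30 min and 4 h later (sometimes 2 h and 6 h). Corneal 60-cycle, 50 mA current for 0.2 s; protection = abolition of hind limb tonic extension, scored as protected/tested.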

neurotoxicity (rotorod) [6] = test: rotorod toxicity, oral rat (Phase VIA/VIB); type: in vivo, male Sprague-Dawley rats; settings: rat oral, 30 mg/kg
Method in brief: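 Male Sprague-Dawley rats (100-150 g) dosed orally. Neurotoxicity scored by ability to stay on a 1 inch diameter knurled plastic rod rotating at 6 rpm.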

[7] = 0.5 h, 30 min, read-out: scMet 30 min
[8] = 4 h, read-out: MES 4 h (converted)
[9] = 0.5 h, 30 min, read-out: MES 30 min (converted)

Question: With `C[C@@H]1CC2=C(Sc3cc(Br)ccc3N2)C(=O)[C@H]1C(=O)OC(C)(C)C` (relative stereo) [Compound 4l, 7-Bromo-3-carbo-ter-butoxy-2-methyl-2,3-dihydro-1H-phenothiazin-4[10H]-one] as the compound, how does the responders at 30 mg/kg ([1]; 0.25 h) read?
Answer: The responders at 30 mg/kg was 50%.

Question: And the responders at 30 mg/kg ([1]; 1.00 h)?
Answer: The responders at 30 mg/kg was 100%.

Question: What about the responders at 30 mg/kg ([1]; 2.00 h) of the same compound?
Answer: Its responders at 30 mg/kg is 100%.

Question: What about the responders at 30 mg/kg ([1]; 4.00 h) of the same compound?
Answer: The responders at 30 mg/kg was 100%.

Question: What about the responders at 30 mg/kg ([1]; 0.5 h, 0.50 h) of the same compound?
Answer: Its responders at 30 mg/kg is 50%.

Question: What about the “Tox 30 min” value (neurotoxicity (rotorod) [2]; 10 mg/kg) of the same compound?
Answer: The value was 0/4.

Question: And the “Tox 30 min” value (neurotoxicity (rotorod) [2]; 30 mg/kg)?
Answer: The value was 0/4.

Question: And the “Tox 4 h” value (neurotoxicity (rotorod) [2]; 30 mg/kg)?
Answer: The value was 0/2.

Question: What about the “Tox 30 min” value (neurotoxicity (rotorod) [2]; 100 mg/kg) of the same compound?
Answer: Its value is 0/8.

Question: What about the “Tox 4 h” value (neurotoxicity (rotorod) [2]; 100 mg/kg) of the same compound?
Answer: The value was 0/4.

Question: What about the “Tox 30 min” value (neurotoxicity (rotorod) [2]; 300 mg/kg) of the same compound?
Answer: Its value is 0/4.

Question: What about the “Tox 4 h” value (neurotoxicity (rotorod) [2]; 300 mg/kg) of the same compound?
Answer: The value was 0/2.

Question: What about the responders at 30 mg/kg [3, 7] of the same compound?
Answer: Its responders at 30 mg/kg is 0%.

Question: What about the responders at 100 mg/kg [3, 7] of the same compound?
Answer: Its responders at 100 mg/kg is 0%.

Question: What about the responders at 300 mg/kg ([3]; 0.5 h, 30 min, read-out: scMet 30 min (converted)) of the same compound?
Answer: The responders at 300 mg/kg was 33.3%.

Question: What about the responders at 30 mg/kg ([3]; 4 h, read-out: scMet 4 h) of the same compound?
Answer: Its responders at 30 mg/kg is 0%.

Question: And the responders at 100 mg/kg ([3]; 4 h, read-out: scMet 4 h)?
Answer: The responders at 100 mg/kg was 0%.

Question: What about the responders at 300 mg/kg ([3]; 4 h, read-out: scMet 4 h (converted)) of the same compound?
Answer: Its responders at 300 mg/kg is 0%.

Question: And the “stability in refluxing DMSO” value [4]?
Answer: Its value is “lability of the 3-carbo-ter butoxy substituent”.

Question: What about the responders at 30 mg/kg ([5]; 4 h, read-out: MES 4 h) of the same compound?
Answer: Its responders at 30 mg/kg is 0%.

Question: And the responders at 100 mg/kg [5, 8]?
Answer: The responders at 100 mg/kg was 66.7%.

Question: What about the responders at 300 mg/kg [5, 8] of the same compound?
Answer: Its responders at 300 mg/kg is 100%.

Question: And the responders at 3 mg/kg ([5]; 0.5 h, 3 mg/kg, 30 min)?
Answer: Its responders at 3 mg/kg is 0%.

Question: And the responders at 10 mg/kg ([5]; 0.5 h, 10 mg/kg, 30 min, read-out: MES 30 min)?
Answer: The responders at 10 mg/kg was 0%.

Question: And the responders at 30 mg/kg [5, 9]?
Answer: Its responders at 30 mg/kg is 100%.

Question: And the responders at 100 mg/kg [5, 9]?
Answer: The responders at 100 mg/kg was 100%.

Question: And the responders at 300 mg/kg [5, 9]?
Answer: Its responders at 300 mg/kg is 100%.

Question: And the Tox (neurotoxicity (rotorod) [6]; 0.25 h)?
Answer: Its Tox is 0/4.

Question: What about the Tox (neurotoxicity (rotorod) [6]; 0.50 h) of the same compound?
Answer: The Tox was 0/4.

Question: And the Tox (neurotoxicity (rotorod) [6]; 1.00 h)?
Answer: Its Tox is 0/4.

Question: And the Tox (neurotoxicity (rotorod) [6]; 2.00 h)?
Answer: The Tox was 0/4.

Question: What about the Tox (neurotoxicity (rotorod) [6]; 4.00 h) of the same compound?
Answer: Its Tox is 0/4.
